Data: ChEMBL document CHEMBL5241082, “Discovery and Characterization of Benzimidazole Derivative XY123 as a Potent, Selective, and Orally Available RORγ Inverse Agonist” (J Med Chem, 2021)

How the values were obtained:
in vivo = settings: Sprague-Dawley, rat, iv, 5 mg/kg
in vitro [1] = settings: human, liver microsomes
in vitro [2] = settings: rat, liver microsomes

SMILES	clearance at 24 h (in vivo)	half-life at 1 µM (in vitro [1])	half-life at 1 µM (in vitro [2])
CCS(=O)(=O)c1ccc(CC(=O)Nc2ccc(-c3nc4ccc(C(F)(F)F)cc4n3[C@H](C)c3ccc(F)cc3)cc2)cc1	3 mL/min/kg	0.0505 h	0.373 h
CCS(=O)(=O)c1ccc(CC(=O)Nc2ccc(-c3nc4ccc(C(F)(F)F)cc4n3[C@@H](C)c3ccc(F)cc3)cc2)cc1	3.33 mL/min/kg	> 2 h	> 2 h
O=C(c1ccc(F)cc1)C1CCN(CCn2c(=O)[nH]c3ccccc3c2=O)CC1 [KETANSERIN]		> 2 h	> 2 h
